Measurements as given in patent US5140018A, “1,3,2-benzodithiazole-1-oxide compounds” (Abbott Laboratories, priority 1991, dated 1992).
Values after ≈ are worked out from the molar mass of the structure shown. Like-named read-outs stand apart in the source and are kept apart here.

Assays:
Type in all cases: cell-based
[1] = system: Candida albicans ATCC 10231; assay: In vitro antifungal MIC, Candida albicans ATCC 10231; details: Candida albicans ATCC 10231, 35°-37° C., 48 hours
Procedure: (§1) The in vitro antifungal activity of the compounds of the present invention against a variety of fungiwas determined as follow: Test medium was prepared by dissolving first 5 g of dextrose and then 6.7 g of Bacto Yeast Nitrogen Base® (commercially available from Difco Laboratories) in 100 mL of distilled water. The solution was filter-sterilized and diluted 1:10 with 0.01M pH 8.0 phosphate buffer solution, and the final pH of the medium adjusted to about pH 7.0 when necessary with either 0.1N hydrochloric acid solution of 0.1N sodium hydroxide solution. […] These concentrated stock solutions were diluted to a concentration of 200 μg/mL (twice the highest concentration desired for testing) with the test medium. Amphotericin B, similarly prepared, was used as a reference antifungal agent.
(§2) The test organisms were then inoculated into test tubes containing approximately 3 to 10 mL of test medium and the test tubes incubated overnight at 37° C. A sample of each overnight culture was placed in a test tube and diluted using the test medium until a reading of 95% transmittance was obtained in a conventional UV/visible spectrophotometer set to 560 nm. The adjusted cultures were then diluted 1:50 with test medium. These diluted cultures served as the inocula for the assays which follow and were used within 15 minutes of preparation.
(§3) Next, 2-fold serial dilutions of each test compound in test medium were prepared in a 96-well microtiter plate using calibrated microdiluters attached to an automatic (hand-held) diluter (available from Dynatech Laboratories).
(§4) Using sterile calibrated droppers or a multi-point dispenser, the diluted inoculum suspension was added to each of the wells in the plate. When inoculation was complete, the microtiter tray was covered with a plastic plate sealer to minimize evaporation. After the plate had been sealed, a hole was made above each well with a sterile 26-gauge syringe needle in order to allow gas exchange. If plate sealers were not available, the microtiter trays were stacked in groups of five or less with an empty tray on top. The microtiter trays were then incubated in a humidified chamber at 35°-37° C. for 48 hours or until growth was visible in the growth control wells.
(§5) The minimum inhibitory concentration (MIC) was defined as the lowest concentration of test compound yielding no growth, a slight haze or sparsely isolated colonies on the inoculum spot as compared to the growth control containing no test compound.

[2] = system: Candida albicans 579A; assay: In vitro antifungal MIC, Candida albicans 579A; details: Candida albicans 579A, 35°-37° C., 48 hours
Procedure: as §1, §2, §3, §4, §5

[3] = system: Candida albicans CCH 442; assay: In vitro antifungal MIC, Candida albicans CCH 442; details: Candida albicans CCH 442, 35°-37° C., 48 hours
Procedure: as §1, §2, §3, §4, §5

[4] = system: Candida albicans ATCC 38247; assay: In vitro antifungal MIC, Candida albicans ATCC 38247; details: Candida albicans ATCC 38247, 35°-37° C., 48 hours
Procedure: as §1, §2, §3, §4, §5

[5] = system: Candida albicans ATCC 62376; assay: In vitro antifungal MIC, Candida albicans ATCC 62376; details: Candida albicans ATCC 62376, 35°-37° C., 48 hours
Procedure: as §1, §2, §3, §4, §5

[6] = system: Candida tropicalis NRRL-Y-112; assay: In vitro antifungal MIC, Candida tropicalis NRRL-Y-112; details: Candida tropicalis NRRL-Y-112, 35°-37° C., 48 hours
Procedure: as §1, §2, §3, §4, §5

[7] = system: Candida kefyr ATCC 28838; assay: In vitro antifungal MIC, Candida kefyr ATCC 28838; details: Candida kefyr ATCC 28838, 35°-37° C., 48 hours
Procedure: as §1, §2, §3, §4, §5

[8] = system: Torulopsis glabrata ATCC 15545; assay: In vitro antifungal MIC, Torulopsis glabrata ATCC 15545; details: Torulopsis glabrata ATCC 15545, 35°-37° C., 48 hours
Procedure: as §1, §2, §3, §4, §5

[9] = system: Cryptococcus albidus ATCC 34140; assay: In vitro antifungal MIC, Cryptococcus albidus ATCC 34140; details: Cryptococcus albidus ATCC 34140, 35°-37° C., 48 hours
Procedure: as §1, §2, §3, §4, §5

[10] = system: Aspergillus niger ATCC 16404; assay: In vitro antifungal MIC, Aspergillus niger ATCC 16404; details: Aspergillus niger ATCC 16404, 35°-37° C., 48 hours
Procedure: as §1, §2, §3, §4, §5

[11] = Kluyveromyces marxianus, ATCC28838, read-out: MIC
[12] = Nakaseomyces glabratus, ATCC15545, read-out: MIC
[13] = Naganishia albida, ATCC34140, read-out: MIC

Row | Molecule | MIC ([1]; ATCC10231, read-out: MIC) [µg/mL] | MIC ([2]; read-out: MIC) [µg/mL] | MIC ([3]; CCH442, read-out: MIC) [µg/mL] | MIC ([4]; ATCC38247, read-out: MIC) [µg/mL] | MIC ([5]; ATCC62376, read-out: MIC) [µg/mL] | MIC ([6]; NRRLY112, read-out: MIC) [µg/mL] | MIC [7, 11] [µg/mL] | MIC [8, 12] [µg/mL] | MIC [9, 13] [µg/mL] | MIC ([10]; ATCC16404, read-out: MIC) [µg/mL] | MIC [1] [µg/mL] | MIC [2] [µg/mL] | MIC [3] [µg/mL] | MIC [4] [µg/mL] | MIC [5] [µg/mL] | MIC [6] [µg/mL] | MIC [7] [µg/mL] | MIC [8] [µg/mL] | MIC [9] [µg/mL] | MIC [10] [µg/mL]
1 | [O-][S+]1c2ccccc2SN1CCCc1ccccc1 (stereo not shown) [Example 39, 2-(3-phenylpropyl)-1,3,2-benzodithiazole-1-oxide] | 1.56 (≈ 5.39 µM) | 3.12 (≈ 10.8 µM) | 3.12 (≈ 10.8 µM) | 12.5 (≈ 43.2 µM) | 3.12 (≈ 10.8 µM) | 6.25 (≈ 21.6 µM) | 1.56 (≈ 5.39 µM) | 3.12 (≈ 10.8 µM) | 25 (≈ 86.4 µM) | 1.56 (≈ 5.39 µM) |  |  |  |  |  |  |  |  |  | 
2 | [O-][S+]1c2ccccc2SN1Cc1ccc(Cl)cc1Cl (stereo not shown) [Example 36, 2-(2,4-dichlorophenyl)methyl-1,3,2-benzodithiazole-1-oxide] | 3.12 (≈ 9.45 µM) | 1.56 (≈ 4.72 µM) | 6.25 (≈ 18.9 µM) | 12.5 (≈ 37.8 µM) | 3.12 (≈ 9.45 µM) | 3.12 (≈ 9.45 µM) | 0.78 (≈ 2.36 µM) | 3.12 (≈ 9.45 µM) | 25 (≈ 75.7 µM) | 3.12 (≈ 9.45 µM) |  |  |  |  |  |  |  |  |  | 
3 | CCCCCN1Sc2ccccc2[S+]1[O-] (stereo not shown) [Example 4, 2-n-pentyl-1,3,2-benzodithiazole-1-oxide] | 0.78 (≈ 3.23 µM) | 0.78 (≈ 3.23 µM) | 0.78 (≈ 3.23 µM) | 3.12 (≈ 12.9 µM) | 0.78 (≈ 3.23 µM) | 50 (≈ 207 µM) | 0.78 (≈ 3.23 µM) | 0.78 (≈ 3.23 µM) | 6.25 (≈ 25.9 µM) | 0.39 (≈ 1.62 µM) |  |  |  |  |  |  |  |  |  | 
4 | [O-][S+]1c2ccccc2SN1c1ccc2c(c1)OCO2 (stereo not shown) [Example 31] | 12.5 (≈ 42.9 µM) | 25 (≈ 85.8 µM) | 25 (≈ 85.8 µM) | 25 (≈ 85.8 µM) | 25 (≈ 85.8 µM) | 50 (≈ 172 µM) | 12.5 (≈ 42.9 µM) | 12.5 (≈ 42.9 µM) | 50 (≈ 172 µM) | 12.5 (≈ 42.9 µM) |  |  |  |  |  |  |  |  |  | 
5 | 2-phenylmethyl-5-methyl-1,3,2-benzodithiazole-1-oxide; 2-phenylmethyl-6-methyl-1,3,2-benzodithiazole-1-oxide [Example 41] |  |  |  |  |  |  |  |  |  |  | 1.56 | 0.78 | 3.12 | 0.39 | 1.56 | 3.12 | 0.78 | 3.12 | 6.25 | 1.56
6 | [O-][S+]1c2ccccc2SN1CCN1CCCCC1 (stereo not shown) [Example 24, 2-(2-(1-piperidinyl)ethyl)-1,3,2-benzodithiazole-1-oxide] | 25 (≈ 88.5 µM) | 25 (≈ 88.5 µM) | 25 (≈ 88.5 µM) | 12.5 (≈ 44.3 µM) | 25 (≈ 88.5 µM) | 25 (≈ 88.5 µM) | 0.78 (≈ 2.76 µM) | 12.5 (≈ 44.3 µM) | 12.5 (≈ 44.3 µM) | 3.12 (≈ 11 µM) |  |  |  |  |  |  |  |  |  | 
7 | [O-][S+]1c2ccccc2SN1C1CC1 (stereo not shown) [Example 27, 2-cyclopropyl-1,3,2-benzodithiazole-1-oxide] | 1.56 (≈ 7.38 µM) | 0.78 (≈ 3.69 µM) | 1.56 (≈ 7.38 µM) | 3.12 (≈ 14.8 µM) | 0.78 (≈ 3.69 µM) | 1.56 (≈ 7.38 µM) | 0.39 (≈ 1.85 µM) | 0.78 (≈ 3.69 µM) | 3.12 (≈ 14.8 µM) | 0.39 (≈ 1.85 µM) |  |  |  |  |  |  |  |  |  | 
